The target in this experiment is T1, TPM3-TRKA fusion protein (Homo sapiens, UniProt P04629).
T1 construct: The resulted chimeric proteins always retain the kinase domain of TRK proteins; TPM3 (fusion partner, N-terminal part of tropomyosin alpha-3, P06753); endogenous in cells; host or cells: KM12 colon cancer cells; the other entry of the earlier key: TPM3 (P06753, Tropomyosin alpha-3 chain)
Nature of the experiment: TPM3-TRKA fusion protein levels in KM12 cells (Western blot). Conditions: 16 h; TPM3-TRKA degradation in KM12 cells at 10 nM compound, category of percentage degradation; read-out: Degradation (at 10 nM). Format: cell-based. The method, then:
KM12 cells were treated with DMSO or indicated compounds at 100 nM for 16 hours.
KM12 cells were treated with DMSO or indicated compounds at 0. 1 nM, 1 nM or 10 nM for 16 hours.
KM12 cells were treated with DMSO or indicated compounds at various concentrations for 16 hours.
KM12 cells were treated with DMSO or indicated compounds at various concentrations for 4 hours.
KM12 cells (a cancer model comprising a colon cancer cell line) were treated with DMSO or indicated compounds at various concentrations for 4 hours.
KM12 cells were treated with heterobifunctional compounds or their corresponding control compounds at 10 nM or 100 nM for 16 hours.
KM12 cells were treated with heterobifunctional compounds or their corresponding control compounds at 0.4-30 nM for 8-16 hours. […] Cells were authenticated using the short tandem repeat (STR) assays. […] Stable cell lines were established by lentivirus transduction, selected and maintained in medium containing 1 μg/mL puromycin (Beyotime Biotechnology).
Cultured cells were washed with cold PBS once and lysed in cold RIPA buffer supplemented with protease inhibitors and phosphatase inhibitors (Beyotime Biotechnology). The solutions were then incubated at 4° C. for 30 minutes with gentle agitation to fully lyse cells. For tumor tissues, tumors were cut into small pieces, milled with cold RIPA buffer using a mechanical homogenizer and lysed for 1 hour at 4° C. Cell lysates were centrifuged at 13,000 rpm for 10 minutes at 4° C. and pellets were discarded. Total protein concentrations in the lysates were determined by BCA assays (Beyotime Biotechnology). Cell lysates were mixed with Laemmli loading buffer to 1× and heated at 99° C. for 5 min. Proteins were resolved on SDS-PAGE and visualized by chemiluminescence. Images were taken by a ChemiDoc MP Imaging system (Bio-Rad). Protein bands were quantitated using the software provided by Bio-Rad.

SMILES strings stand for the structures. Where only a bound is given, the exact number is not on record here.

T1 sequence (P04629 with tags, fused parts or gaps): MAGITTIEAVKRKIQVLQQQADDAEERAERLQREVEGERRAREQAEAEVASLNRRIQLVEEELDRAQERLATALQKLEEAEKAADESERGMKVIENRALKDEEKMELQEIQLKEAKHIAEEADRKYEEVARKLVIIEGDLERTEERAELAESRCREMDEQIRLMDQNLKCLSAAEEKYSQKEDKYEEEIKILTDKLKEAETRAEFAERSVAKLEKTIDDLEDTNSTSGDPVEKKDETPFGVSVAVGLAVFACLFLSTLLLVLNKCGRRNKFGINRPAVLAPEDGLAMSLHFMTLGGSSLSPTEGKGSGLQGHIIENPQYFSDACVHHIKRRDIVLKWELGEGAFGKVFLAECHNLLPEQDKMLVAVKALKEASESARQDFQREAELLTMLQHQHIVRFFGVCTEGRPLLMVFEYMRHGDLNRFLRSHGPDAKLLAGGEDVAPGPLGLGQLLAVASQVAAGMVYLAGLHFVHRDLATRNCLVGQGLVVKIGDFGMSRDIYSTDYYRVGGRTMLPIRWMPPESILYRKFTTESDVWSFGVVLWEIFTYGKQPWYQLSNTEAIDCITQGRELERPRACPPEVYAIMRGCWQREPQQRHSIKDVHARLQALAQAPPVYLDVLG

Consider `Cc1ncsc1-c1ccc(CNC(=O)[C@@H]2C[C@@H](O)CN2C(=O)[C@@H](NC(=O)CCOCCOCCOCCC(=O)N2CCN(c3ccc(C(=O)Nc4n[nH]c5ccc(Cc6cc(F)cc(F)c6)cc45)c(NC4CCOCC4)c3)CC2)C(C)(C)C)cc1` [CPD-039, (28,4R)-1-((S)-2-(tert-butyl)-16-(4-(4-((5-(3,5-Difluorobenzyl)-1H-indazol-3-yl)carbamoyl)-3-((tetrahydro-2H-pyran-4-yl)amino)phenyl)piperazin-1-yl)-4,16-dioxo-7,10,13-trioxa-3-azahexadecanoyl)-4-hydroxy-N-(4-(4-methylthiazol-5-yl)benzyl)pyrrolidine-2-carboxamide], for which the percent degradation of TPM3-TRKA protein at 0.01 µM was less than 50%. In the case of `Cc1ncsc1-c1ccc(CNC(=O)[C@@H]2C[C@@H](O)CN2C(=O)[C@@H](NC(=O)CCOCCOCCOCCOCCC(=O)N2CCN(c3ccc(C(=O)Nc4n[nH]c5ccc(Cc6cc(F)cc(F)c6)cc45)c(NC4CCOCC4)c3)CC2)C(C)(C)C)cc1` [CPD-041, (2S,4R)-1-((S)-2-(tert-butyl)-19-(4-(4-((5-(3,5-Difluorobenzyl)-1H-indazol-3-yl)carbamoyl)-3-((tetrahydro-2H-pyran-4-yl)amino)phenyl)piperazin-1-yl)-4,19-dioxo-7,10,13,16-tetraoxa-3-azanonadecanoyl)-4-hydroxy-N-(4-(4-methylthiazol-5-yl)benzyl)pyrrolidine-2-carboxamide], the percent degradation of TPM3-TRKA protein at 0.01 µM was less than 50%. Next, `Cc1ncsc1-c1ccc(CNC(=O)[C@@H]2C[C@@H](O)CN2C(=O)[C@@H](NC(=O)CCCCC(=O)N2CCN(c3ccc(C(=O)Nc4n[nH]c5ccc(Cc6cc(F)cc(F)c6)cc45)c(NC4CCOCC4)c3)CC2)C(C)(C)C)cc1` [CPD-044]: 50 to 80%; `Cc1ncsc1-c1ccc(CNC(=O)[C@@H]2C[C@@H](O)CN2C(=O)[C@@H](NC(=O)COCC(=O)N2CCN(c3ccc(C(=O)Nc4n[nH]c5ccc(Cc6cc(F)cc(F)c6)cc45)c(NC4CCOCC4)c3)CC2)C(C)(C)C)cc1` [CPD-045, (28,4R)-1-((S)-2-(2-(2-(4-(4-((5-(3,5˜Difluorobenzyl)-1H-indazol-3-yl)carbamoyl)-3-((tetrahydro-2H-pyran-4-yl)amino)phenyl)piperazin-1-yl)-2-oxoethoxy)acetamido)-3,3-dimethylbutanoyl)-4-hydroxy-N-(4-(4-methylthiazol-5-yl)benzyl)pyrrolidine-2-carboxamide]: 50 to 80%; `Cc1ncsc1-c1ccc(CNC(=O)[C@@H]2C[C@@H](O)CN2C(=O)[C@@H](NC(=O)CCC(=O)N2CCN(c3ccc(C(=O)Nc4n[nH]c5ccc(Cc6cc(F)cc(F)c6)cc45)c(NC4CCOCC4)c3)CC2)C(C)(C)C)cc1` [CPD-046, (25,4R)-1-((S)-2-(4-(4-(4-((S-(3,5-Difluorobenzyl)-1H-indazol-3-yl)carbamoyl)-3,3-((tetrahydro-2H-pyran-4-yl)amino)phenyl)piperazin-1-yl)-4-oxobutanamido)-3,3-dimethylbutanoyl)-4-hydroxy-N-(4-(4-methylthiazol-S-yl)benzyl)pyrrolidine-2-carboxamide]: 50 to 80%.

With `Cc1ncsc1-c1ccc(CNC(=O)[C@@H]2C[C@@H](O)CN2C(=O)[C@@H](NC(=O)CCCCCC(=O)N2CCN(c3ccc(C(=O)Nc4n[nH]c5ccc(Cc6cc(F)cc(F)c6)cc45)c(NC4CCOCC4)c3)CC2)C(C)(C)C)cc1` [CPD-047, (28,4R)-1-((S)-2-(7-(4-(4-((5-(3,5-Difluorobenzyl)-1H-indazol-3-yl)carbamoyl)-3-((tetrahydro-2H-pyran-4-yl)amino)phenyl)piperazin-1-yl)-7-oxoheptanamido)-3,3-dimethylbutanoyl)-4-hydroxy-N-(4-(4-methylthiazol-5-yl)benzyl)pyrrolidine-2-carboxamide], the percent degradation of TPM3-TRKA protein at 0.01 µM was greater than 80%.

With `Cc1ncsc1-c1ccc(CNC(=O)[C@@H]2C[C@@H](O)CN2C(=O)[C@@H](NC(=O)CCOCCC(=O)N2CCN(c3ccc(C(=O)Nc4n[nH]c5ccc(Cc6cc(F)cc(F)c6)cc45)c(NC4CCOCC4)c3)CC2)C(C)(C)C)cc1` [CPD-048, (28,4R)-1-((S)-2-(3-(3-(4-(4-((5-(3,5-Difluorobenzyl)-1H-indazol-3-yl)carbamoyl)-3-((tetrahydro-2H-pyran-4-yl)amino)phenyl)piperazin-1-yl)-3-oxopropoxy)propanamido)-3,3-dimethylbutanoyl)-4-hydroxy-N-(4-(4-methylthiazol-5-yl)benzyl)pyrrolidine-2-carboxamide], the percent degradation of TPM3-TRKA protein at 0.01 µM is less than 50%.

On to `O=C1CCC(N2C(=O)c3cccc(NCCCCCCC(=O)N4CCN(c5ccc(C(=O)Nc6n[nH]c7ccc(Cc8cc(F)cc(F)c8)cc67)c(NC6CCOCC6)c5)CC4)c3C2=O)C(=O)N1` (stereo not drawn) [CPD-049, N—(S-(3,5-Difluorobenzyl)-1H-indazol-3-yl)-4-(4-(7-((2-(2,6-dioxopiperidin-3-yl)-1,3-dioxoisoindolin-4-yl)amino)heptanoyl)piperazin-1-yl)-2-((tetrahydro-2H-pyran-4-yl)amino)benzamide], for which the percent degradation of TPM3-TRKA protein at 0.01 µM is greater than 80%. Next, `O=C1CCC(N2C(=O)c3cccc(NCCCCC(=O)N4CCN(c5ccc(C(=O)Nc6n[nH]c7ccc(Cc8cc(F)cc(F)c8)cc67)c(NC6CCOCC6)c5)CC4)c3C2=O)C(=O)N1` (centres unmarked) [CPD-050, N-(5-(3,5-Difluorobenzyl)-1H-indazol-3-yl)-4-(4-(5-((2-(2,6-dioxopiperidin-3-yl)-1,3-dioxoisoindolin-4-yl)amino)pentanoyl)piperazin-1-yl)-2-((tetrahydro-2H-pyran-4-yl)amino)benzamide]: greater than 80%; `O=C1CCC(N2C(=O)c3cccc(NCCC(=O)N4CCN(c5ccc(C(=O)Nc6n[nH]c7ccc(Cc8cc(F)cc(F)c8)cc67)c(NC6CCOCC6)c5)CC4)c3C2=O)C(=O)N1` (centres unmarked) [CPD-051, N-(5-(3,5-Difluorobenzyl)-1H-indazol-3-yl)-4-(4-(3-((2-(2,6-dioxopiperidin-3-yl)-1,3-dioxoisoindolin-4-yl)amino)propanoyl)piperazin-1-yl)-2-((tetrahydro-2H-pyran-4-yl)amino)benzamide]: greater than 80%; `O=C1CCC(N2C(=O)c3cccc(NCCCCCCCC(=O)N4CCN(c5ccc(C(=O)Nc6n[nH]c7ccc(Cc8cc(F)cc(F)c8)cc67)c(NC6CCOCC6)c5)CC4)c3C2=O)C(=O)N1` (centres unmarked) [CPD-052, N-(5-(3,5-Difluorobenzyl)-1H-indazol-3-yl)-4-(4-(8-((2-(2,6-dioxopiperidin-3-yl)-1,3-dioxoisoindolin-4-yl)amino)octanoyl)piperazin-1-yl)-2-((tetrahydro-2H-pyran-4-yl)amino)benzamide]: greater than 80%. To `O=C1CCC(N2C(=O)c3cccc(NCCOCCOCCOCCOCCOCCC(=O)N4CCN(c5ccc(C(=O)Nc6n[nH]c7ccc(Cc8cc(F)cc(F)c8)cc67)c(NC6CCOCC6)c5)CC4)c3C2=O)C(=O)N1` (centres unmarked) [CPD-054, N-(5-(3,5-Difluorobenzyl)-1H-indazol-3-yl)-4-(4-(1-((2-(2,6-dioxopiperidin-3-yl)-1,3-dioxoisoindolin-4-yl)amino)-3,6,9,12, 15-pentaoxaoctadecan-18-oyl)piperazin-1-yl)-2-((tetrahydro-2H-pyran-4-yl)amino)benzamide] belongs greater than 80%.

Take `O=C1CCC(N2C(=O)c3cccc(NCC(=O)N4CCN(c5ccc(C(=O)Nc6n[nH]c7ccc(Cc8cc(F)cc(F)c8)cc67)c(NC6CCOCC6)c5)CC4)c3C2=O)C(=O)N1` (centres unmarked) [CPD-055, N-(5-(3,5-Difluorobenzyl)-1HI-indazol-3-yl)-4-(4-((2-(2,6-dioxopiperidin-3-yl)-1,3-dioxoisoindolin-4-yl)glycyl)piperazin-1-yl)-2-((tetrahydro-2H-pyran-4-yl)amino)benzamide]: the percent degradation of TPM3-TRKA protein at 0.01 µM was greater than 80%. Next, `O=C1CCC(N2C(=O)c3cccc(NCCCCCC(=O)N4CCN(c5ccc(C(=O)Nc6n[nH]c7ccc(Cc8cc(F)cc(F)c8)cc67)c(NC6CCOCC6)c5)CC4)c3C2=O)C(=O)N1` (centres unmarked) [CPD-056, N-(5-(3,5-Difluorobenzyl)-1H-indazol-3-yl)-4-(4-(6-((2-(2,6-dioxopiperidin-3-yl)-1,3-dioxoisoindolin-4-yl)amino)hexanoyl)piperazin-1-yl)-2-((tetrahydro-2H-pyran-4-yl)amino)benzamide]: greater than 80%.

(Values after patent US12410171B2, “Tropomyosin receptor kinase (TRK) degradation compounds and methods of use” (Cullgen (Shanghai), Inc., priority 2020, dated 2025).)
